Read-outs that look alike come from different tables or passages of the source.
Legend:
[1] = system: MIXED COOLING TOWER ALGAE; experiment: MIC test against mixed cooling tower algae; assay type: cell-based, green algae and blue-green bacteria; settings: Table VIII
Experimental: The algae culture contains green algae and blue-green bacteria, and is obtained from a cooling tower in Spring House, Pennsylvania. The algae culture is grown in Allen's medium on a rotary shaker under flourescent room lighting. This culture is further diluted with Allen's medium and then added to the test vessel.

[2] = system: Piricularia oryzae (PIR); experiment: microbe, parasite or virus in culture; assay type: cell-based
[3] = system: Septoria nodorum (SEP); experiment: In-vitro plant fungicide test; assay type: cell-based; settings: Parastagonospora nodorum
[4] = system: 7 FUNGI; experiment: Microbicides broad spectrum secondary test against 7 fungi (Table V); assay type: cell-based; design: key: 1= no growth; 0= growth of the indicated fungi at dose indicated in ppm; settings: Mycophile agar, pH 5.0; for ANIG growth: Aspergillus niger; for APUL growth: Aureobasidium pullulans; for CRES growth: Cladosporium resinae; for GTRA growth: Gloeophyllum trabeum; for PFUN growth: Penicillium funiculosum; for RRUB growth: Rhodotorula rubra; for SSER growth: Sacharomyces cerevisiae
Experimental: In the case of fungi, the spores are harvested by pipetting water onto the slant and dislodging the spores with a sterile loop. The cell/spore suspension is standardized by controlling incubation time, temperature, and the volume of the diluent. The suspension is then used to inoculate the vessels containing the broth compound. […] The results of the minimum inhibitory concentration (MIC) tests of compounds of this invention are shown in Tables IIIa IIIb, IIIc, V, VI, VII, and VIII against the microorganisms shown in Table IX. [table]

[5] = system: 8 FUNGI; experiment: Microbicides secondary test against 8 fungi on Mycophile Agar at pH 5.0 (Table VI); assay type: cell-based; design: key: 1= no growth; 0= growth of the indicated fungi at dose indicated in ppm; settings: for ANIG growth: Aspergillus niger; for APUL growth: Aureobasidium pullulans; for CGLO growth: Chaetomium globosum; for CRES growth: Cladosporium resinae; for GTRA growth: Gloeophyllum trabeum; for PFUN growth: Penicillium funiculosum; for RRUB growth: Rhodotorula rubra; for SSER growth: Sacharomyces cerevisiae
Source text: The results of the minimum inhibitory concentration (MIC) tests of compounds of this invention are shown in Tables IIIa IIIb, IIIc, V, VI, VII, and VIII against the microorganisms shown in Table IX.

[6] = system: Pseudomonas fluorescens (PSFL); experiment: Minimum inhibitory concentration (MIC), broth two-fold serial dilution test; settings: Pseudomonas fluorescens, IIIB, read-out: MIC (G-) PSFL, trypticase soy broth (complex media); Table IIIb
[7] = system: PSH; experiment: In-vitro plant fungicide test; assay type: cell-based; settings: Table IVb, read-out: % Control at (ppm) indicated PSH
[8] = read-out: % Control at 25 ppm PIR
[9] = Table IVa, read-out: % Control at 25 ppm SEP

O=C(CNC(=O)c1ccccc1)OCC#CI [Compound 29, N-benzoylglycine iodopropargyl ester]
32 µg/mL: MIC [6]
100%: inhibition of growth at 25 ppm [2, 8] | inhibition of growth at 25 ppm [3, 9]
1: ANIG growth ([4]; 5 PPM) | ANIG growth ([4]; 25 PPM) | APUL growth ([4]; 5 PPM) | APUL growth ([4]; 25 PPM) | CRES growth ([4]; 5 PPM) | CRES growth ([4]; 25 PPM) | GTRA growth ([4]; 0.2 PPM) | GTRA growth ([4]; 1 PPM) | GTRA growth ([4]; 5 PPM) | GTRA growth ([4]; 25 PPM) | PFUN growth ([4]; 5 PPM) | PFUN growth ([4]; 25 PPM) | RRUB growth ([4]; 5 PPM) | RRUB growth ([4]; 25 PPM) | SSER growth ([4]; 5 PPM) | SSER growth ([4]; 25 PPM) | ANIG growth ([5]; 1.0 PPM) | ANIG growth ([5]; 2.5 PPM) | ANIG growth ([5]; 25 PPM) | APUL growth ([5]; 25 PPM) | CGLO growth ([5]; 25 PPM) | CRES growth ([5]; 25 PPM) | GTRA growth ([5]; 1.0 PPM) | GTRA growth ([5]; 2.5 PPM) | GTRA growth ([5]; 25 PPM) | PFUN growth ([5]; 2.5 PPM) | PFUN growth ([5]; 25 PPM) | RRUB growth ([5]; 25 PPM) | SSER growth ([5]; 25 PPM)
6.2 µg/mL: MIC [1]
0: ANIG growth ([4]; 0.2 PPM) | ANIG growth ([4]; 1 PPM) | APUL growth ([4]; 0.2 PPM) | APUL growth ([4]; 1 PPM) | CRES growth ([4]; 0.2 PPM) | CRES growth ([4]; 1 PPM) | PFUN growth ([4]; 0.2 PPM) | PFUN growth ([4]; 1 PPM) | RRUB growth ([4]; 0.2 PPM) | RRUB growth ([4]; 1 PPM) | SSER growth ([4]; 0.2 PPM) | SSER growth ([4]; 1 PPM) | ANIG growth ([5]; 0.2 PPM) | APUL growth ([5]; 0.2 PPM) | APUL growth ([5]; 1.0 PPM) | APUL growth ([5]; 2.5 PPM) | CGLO growth ([5]; 0.2 PPM) | CGLO growth ([5]; 1.0 PPM) | CGLO growth ([5]; 2.5 PPM) | CRES growth ([5]; 0.2 PPM) | CRES growth ([5]; 1.0 PPM) | CRES growth ([5]; 2.5 PPM) | GTRA growth ([5]; 0.2 PPM) | PFUN growth ([5]; 0.2 PPM) | PFUN growth ([5]; 1.0 PPM) | RRUB growth ([5]; 0.2 PPM) | RRUB growth ([5]; 1.0 PPM) | RRUB growth ([5]; 2.5 PPM) | SSER growth ([5]; 0.2 PPM) | SSER growth ([5]; 1.0 PPM) | SSER growth ([5]; 2.5 PPM)

O=C(CN1C(=O)c2ccccc2C1=O)OCC#CI [Compound 30, N-phthaloylglycine iodopropargyl ester]
75%: inhibition of growth at 25 ppm [3, 9]
0%: inhibition of growth at 0.2 ppm ([2]; .2 ppm, read-out: % Control at (ppm) indicated PIR) | inhibition of growth at 0.4 ppm ([2]; .4 ppm, read-out: % Control at (ppm) indicated PIR) | inhibition of growth at 0.2 ppm ([7]; .2 ppm) | inhibition of growth at 0.2 ppm ([3]; .2 ppm, Table IVb, read-out: % Control at (ppm) indicated SEP) | inhibition of growth at 0.4 ppm ([3]; .4 ppm, Table IVb, read-out: % Control at (ppm) indicated SEP)
100%: inhibition of growth at 1.5 ppm ([2]; 1.5 ppm, read-out: % Control at (ppm) indicated PIR) | inhibition of growth at 6 ppm ([2]; 6 ppm, read-out: % Control at (ppm) indicated PIR) | inhibition of growth at 25 ppm ([2]; 25 ppm, read-out: % Control at (ppm) indicated PIR) | inhibition of growth at 0.8 ppm ([2]; .8 ppm, read-out: % Control at (ppm) indicated PIR) | inhibition of growth at 25 ppm [2, 8] | inhibition of growth at 1.5 ppm ([7]; 1.5 ppm) | inhibition of growth at 6 ppm ([7]; 6 ppm) | inhibition of growth at 25 ppm ([7]; 25 ppm) | inhibition of growth at 0.4 ppm ([7]; .4 ppm) | inhibition of growth at 0.8 ppm ([7]; .8 ppm) | inhibition of growth at 1.5 ppm ([3]; 1.5 ppm, Table IVb, read-out: % Control at (ppm) indicated SEP) | inhibition of growth at 6 ppm ([3]; 6 ppm, Table IVb, read-out: % Control at (ppm) indicated SEP) | inhibition of growth at 25 ppm ([3]; Table IVb, read-out: % Control at (ppm) indicated SEP) | inhibition of growth at 0.8 ppm ([3]; .8 ppm, Table IVb, read-out: % Control at (ppm) indicated SEP)
6.2 µg/mL: MIC [1]
> 250 µg/mL: MIC [6]
1: ANIG growth ([5]; 25 PPM) | APUL growth ([5]; 25 PPM) | CGLO growth ([5]; 2.5 PPM) | CGLO growth ([5]; 25 PPM) | CRES growth ([5]; 25 PPM) | GTRA growth ([5]; 2.5 PPM) | GTRA growth ([5]; 25 PPM) | PFUN growth ([5]; 25 PPM) | RRUB growth ([5]; 25 PPM) | SSER growth ([5]; 2.5 PPM) | SSER growth ([5]; 25 PPM)
0: ANIG growth ([5]; 0.2 PPM) | ANIG growth ([5]; 1.0 PPM) | ANIG growth ([5]; 2.5 PPM) | APUL growth ([5]; 0.2 PPM) | APUL growth ([5]; 1.0 PPM) | APUL growth ([5]; 2.5 PPM) | CGLO growth ([5]; 0.2 PPM) | CGLO growth ([5]; 1.0 PPM) | CRES growth ([5]; 0.2 PPM) | CRES growth ([5]; 1.0 PPM) | CRES growth ([5]; 2.5 PPM) | GTRA growth ([5]; 0.2 PPM) | GTRA growth ([5]; 1.0 PPM) | PFUN growth ([5]; 0.2 PPM) | PFUN growth ([5]; 1.0 PPM) | PFUN growth ([5]; 2.5 PPM) | RRUB growth ([5]; 0.2 PPM) | RRUB growth ([5]; 1.0 PPM) | RRUB growth ([5]; 2.5 PPM) | SSER growth ([5]; 0.2 PPM) | SSER growth ([5]; 1.0 PPM)

Source: patent publication EP0414533A1, “Use of iodopropargyl esters of alpha-amino acid derivatives as antimicrobial agents” (ROHM AND HAAS COMPANY, priority 1989, dated 1991)
